Measurements reported in patent US7553864B2, “Compounds for the treatment of inflammatory disorders and microbial diseases” (Schering Corporation, priority 2005, dated 2009).

test system: LpxC enzyme; assay: LpxC enzyme assay (RapidFire high-throughput mass spectrometry); type: biochemical; settings: concentration 0.10 (unit not given)
In short: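 0.2 nM enzyme with 1.0 μM UDP-3-O-(R-3-hydroxymyristoyl)-N-acetylglucosamine in 25 mM HEPES pH 7.3, 150 mM NaCl, 2.0 mM DTT, 0.01% BSA, 2% DMSO; 60 min at room temperature, quenched with HCl. Substrate and product quantified by RapidFire mass spectrometry; percent conversion gives percent inhibition versus DMSO control.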

Structure (SMILES)	LpxC enzyme assay rating (% inhibition at indicated concentrations)
O=C([C@H](O)[C@@H](O)C(=O)N1CCC(c2ccc(C(F)(F)F)cc2)CC1)N1CCCC1 [Compound 69]	C (less than 10% inhibition)
O=C([C@H](O)[C@@H](O)C(=O)N1CCC(c2ccc3ccccc3c2)CC1)N1CCCC1 [Compound 70]	C (less than 10% inhibition)
O=C(Nc1ccc(Oc2ccccc2)cc1)[C@H](O)[C@@H](O)C(=O)N1CCCC1 [Compound 71]	B (10-30% inhibition)
CN1CCN(c2ccc(NC(=O)[C@H](O)[C@@H](O)C(=O)N3CCCC3)cc2)CC1 [Compound 72]	B (10-30% inhibition)
CN(C)CCOc1ccc(NC(=O)[C@H](O)[C@@H](O)C(=O)N2CCCC2)cc1 [Compound 73]	C (less than 10% inhibition)
CN(C)CCCOc1ccc(NC(=O)[C@H](O)[C@@H](O)C(=O)N2CCCC2)cc1 [Compound 74]	B (10-30% inhibition)

same assay, conditions: concentration 0.20 (unit not given)

Structure (SMILES)	LpxC enzyme assay rating (% inhibition at indicated concentrations)
O=C([C@H](O)[C@@H](O)C(=O)N1CCC(c2ccc(C(F)(F)F)cc2)CC1)N1CCCC1 [Compound 69]	C (less than 10% inhibition)
O=C([C@H](O)[C@@H](O)C(=O)N1CCC(c2ccc3ccccc3c2)CC1)N1CCCC1 [Compound 70]	C (less than 10% inhibition)
O=C(Nc1ccc(Oc2ccccc2)cc1)[C@H](O)[C@@H](O)C(=O)N1CCCC1 [Compound 71]	C (less than 10% inhibition)
CN1CCN(c2ccc(NC(=O)[C@H](O)[C@@H](O)C(=O)N3CCCC3)cc2)CC1 [Compound 72]	C (less than 10% inhibition)
CN(C)CCOc1ccc(NC(=O)[C@H](O)[C@@H](O)C(=O)N2CCCC2)cc1 [Compound 73]	B (10-30% inhibition)
CN(C)CCCOc1ccc(NC(=O)[C@H](O)[C@@H](O)C(=O)N2CCCC2)cc1 [Compound 74]	C (less than 10% inhibition)

same assay, conditions: concentration 0.39 (unit not given)

Structure (SMILES)	LpxC enzyme assay rating (% inhibition at indicated concentrations)
O=C([C@H](O)[C@@H](O)C(=O)N1CCC(c2ccc(C(F)(F)F)cc2)CC1)N1CCCC1 [Compound 69]	C (less than 10% inhibition)
O=C([C@H](O)[C@@H](O)C(=O)N1CCC(c2ccc3ccccc3c2)CC1)N1CCCC1 [Compound 70]	C (less than 10% inhibition)
O=C(Nc1ccc(Oc2ccccc2)cc1)[C@H](O)[C@@H](O)C(=O)N1CCCC1 [Compound 71]	B (10-30% inhibition)
CN1CCN(c2ccc(NC(=O)[C@H](O)[C@@H](O)C(=O)N3CCCC3)cc2)CC1 [Compound 72]	C (less than 10% inhibition)
CN(C)CCOc1ccc(NC(=O)[C@H](O)[C@@H](O)C(=O)N2CCCC2)cc1 [Compound 73]	C (less than 10% inhibition)
CN(C)CCCOc1ccc(NC(=O)[C@H](O)[C@@H](O)C(=O)N2CCCC2)cc1 [Compound 74]	C (less than 10% inhibition)

same assay, conditions: concentration 0.78 (unit not given)

Structure (SMILES)	LpxC enzyme assay rating (% inhibition at indicated concentrations)
O=C([C@H](O)[C@@H](O)C(=O)N1CCC(c2ccc(C(F)(F)F)cc2)CC1)N1CCCC1 [Compound 69]	C (less than 10% inhibition)
O=C([C@H](O)[C@@H](O)C(=O)N1CCC(c2ccc3ccccc3c2)CC1)N1CCCC1 [Compound 70]	B (10-30% inhibition)
O=C(Nc1ccc(Oc2ccccc2)cc1)[C@H](O)[C@@H](O)C(=O)N1CCCC1 [Compound 71]	B (10-30% inhibition)
CN1CCN(c2ccc(NC(=O)[C@H](O)[C@@H](O)C(=O)N3CCCC3)cc2)CC1 [Compound 72]	C (less than 10% inhibition)
CN(C)CCOc1ccc(NC(=O)[C@H](O)[C@@H](O)C(=O)N2CCCC2)cc1 [Compound 73]	B (10-30% inhibition)
CN(C)CCCOc1ccc(NC(=O)[C@H](O)[C@@H](O)C(=O)N2CCCC2)cc1 [Compound 74]	C (less than 10% inhibition)

same assay, conditions: concentration 1.56 (unit not given)

Structure (SMILES)	LpxC enzyme assay rating (% inhibition at indicated concentrations)
O=C([C@H](O)[C@@H](O)C(=O)N1CCC(c2ccc(C(F)(F)F)cc2)CC1)N1CCCC1 [Compound 69]	C (less than 10% inhibition)
O=C([C@H](O)[C@@H](O)C(=O)N1CCC(c2ccc3ccccc3c2)CC1)N1CCCC1 [Compound 70]	C (less than 10% inhibition)
O=C(Nc1ccc(Oc2ccccc2)cc1)[C@H](O)[C@@H](O)C(=O)N1CCCC1 [Compound 71]	B (10-30% inhibition)
CN1CCN(c2ccc(NC(=O)[C@H](O)[C@@H](O)C(=O)N3CCCC3)cc2)CC1 [Compound 72]	C (less than 10% inhibition)
CN(C)CCOc1ccc(NC(=O)[C@H](O)[C@@H](O)C(=O)N2CCCC2)cc1 [Compound 73]	C (less than 10% inhibition)
CN(C)CCCOc1ccc(NC(=O)[C@H](O)[C@@H](O)C(=O)N2CCCC2)cc1 [Compound 74]	B (10-30% inhibition)

same assay, conditions: concentration 3.13 (unit not given)

Structure (SMILES)	LpxC enzyme assay rating (% inhibition at indicated concentrations)
O=C([C@H](O)[C@@H](O)C(=O)N1CCC(c2ccc(C(F)(F)F)cc2)CC1)N1CCCC1 [Compound 69]	C (less than 10% inhibition)
O=C([C@H](O)[C@@H](O)C(=O)N1CCC(c2ccc3ccccc3c2)CC1)N1CCCC1 [Compound 70]	C (less than 10% inhibition)
O=C(Nc1ccc(Oc2ccccc2)cc1)[C@H](O)[C@@H](O)C(=O)N1CCCC1 [Compound 71]	B (10-30% inhibition)
CN1CCN(c2ccc(NC(=O)[C@H](O)[C@@H](O)C(=O)N3CCCC3)cc2)CC1 [Compound 72]	C (less than 10% inhibition)
CN(C)CCOc1ccc(NC(=O)[C@H](O)[C@@H](O)C(=O)N2CCCC2)cc1 [Compound 73]	C (less than 10% inhibition)
CN(C)CCCOc1ccc(NC(=O)[C@H](O)[C@@H](O)C(=O)N2CCCC2)cc1 [Compound 74]	B (10-30% inhibition)

same assay, conditions: concentration 6.25 (unit not given)

Structure (SMILES)	LpxC enzyme assay rating (% inhibition at indicated concentrations)
O=C([C@H](O)[C@@H](O)C(=O)N1CCC(c2ccc(C(F)(F)F)cc2)CC1)N1CCCC1 [Compound 69]	C (less than 10% inhibition)
O=C([C@H](O)[C@@H](O)C(=O)N1CCC(c2ccc3ccccc3c2)CC1)N1CCCC1 [Compound 70]	C (less than 10% inhibition)
O=C(Nc1ccc(Oc2ccccc2)cc1)[C@H](O)[C@@H](O)C(=O)N1CCCC1 [Compound 71]	C (less than 10% inhibition)
CN1CCN(c2ccc(NC(=O)[C@H](O)[C@@H](O)C(=O)N3CCCC3)cc2)CC1 [Compound 72]	C (less than 10% inhibition)
CN(C)CCOc1ccc(NC(=O)[C@H](O)[C@@H](O)C(=O)N2CCCC2)cc1 [Compound 73]	C (less than 10% inhibition)
CN(C)CCCOc1ccc(NC(=O)[C@H](O)[C@@H](O)C(=O)N2CCCC2)cc1 [Compound 74]	C (less than 10% inhibition)

same assay, conditions: concentration 12.50 (unit not given)

Structure (SMILES)	LpxC enzyme assay rating (% inhibition at indicated concentrations)
O=C([C@H](O)[C@@H](O)C(=O)N1CCC(c2ccc(C(F)(F)F)cc2)CC1)N1CCCC1 [Compound 69]	C (less than 10% inhibition)
O=C([C@H](O)[C@@H](O)C(=O)N1CCC(c2ccc3ccccc3c2)CC1)N1CCCC1 [Compound 70]	C (less than 10% inhibition)
O=C(Nc1ccc(Oc2ccccc2)cc1)[C@H](O)[C@@H](O)C(=O)N1CCCC1 [Compound 71]	C (less than 10% inhibition)
CN1CCN(c2ccc(NC(=O)[C@H](O)[C@@H](O)C(=O)N3CCCC3)cc2)CC1 [Compound 72]	C (less than 10% inhibition)
CN(C)CCOc1ccc(NC(=O)[C@H](O)[C@@H](O)C(=O)N2CCCC2)cc1 [Compound 73]	C (less than 10% inhibition)
CN(C)CCCOc1ccc(NC(=O)[C@H](O)[C@@H](O)C(=O)N2CCCC2)cc1 [Compound 74]	C (less than 10% inhibition)

same assay, conditions: concentration 25 (unit not given)

Structure (SMILES)	LpxC enzyme assay rating (% inhibition at indicated concentrations)
O=C([C@H](O)[C@@H](O)C(=O)N1CCC(c2ccc(C(F)(F)F)cc2)CC1)N1CCCC1 [Compound 69]	C (less than 10% inhibition)
O=C([C@H](O)[C@@H](O)C(=O)N1CCC(c2ccc3ccccc3c2)CC1)N1CCCC1 [Compound 70]	B (10-30% inhibition)
O=C(Nc1ccc(Oc2ccccc2)cc1)[C@H](O)[C@@H](O)C(=O)N1CCCC1 [Compound 71]	C (less than 10% inhibition)
CN1CCN(c2ccc(NC(=O)[C@H](O)[C@@H](O)C(=O)N3CCCC3)cc2)CC1 [Compound 72]	C (less than 10% inhibition)
CN(C)CCOc1ccc(NC(=O)[C@H](O)[C@@H](O)C(=O)N2CCCC2)cc1 [Compound 73]	C (less than 10% inhibition)
CN(C)CCCOc1ccc(NC(=O)[C@H](O)[C@@H](O)C(=O)N2CCCC2)cc1 [Compound 74]	C (less than 10% inhibition)

same assay, conditions: concentration 50 (unit not given)

Structure (SMILES)	LpxC enzyme assay rating (% inhibition at indicated concentrations)
O=C([C@H](O)[C@@H](O)C(=O)N1CCC(c2ccc(C(F)(F)F)cc2)CC1)N1CCCC1 [Compound 69]	C (less than 10% inhibition)
O=C([C@H](O)[C@@H](O)C(=O)N1CCC(c2ccc3ccccc3c2)CC1)N1CCCC1 [Compound 70]	C (less than 10% inhibition)
O=C(Nc1ccc(Oc2ccccc2)cc1)[C@H](O)[C@@H](O)C(=O)N1CCCC1 [Compound 71]	C (less than 10% inhibition)
CN1CCN(c2ccc(NC(=O)[C@H](O)[C@@H](O)C(=O)N3CCCC3)cc2)CC1 [Compound 72]	B (10-30% inhibition)
CN(C)CCOc1ccc(NC(=O)[C@H](O)[C@@H](O)C(=O)N2CCCC2)cc1 [Compound 73]	C (less than 10% inhibition)
CN(C)CCCOc1ccc(NC(=O)[C@H](O)[C@@H](O)C(=O)N2CCCC2)cc1 [Compound 74]	C (less than 10% inhibition)
